Assay results as given in patent US20160002204A1 (Board of Regents, The University of Texas System, priority 2014, published 2016).

Experiments:
A549 cells = assay: A549 proliferation (viability) assay, Cell Titer Fluor, 72 hours; type: cell-based; details: Homo sapiens
In short: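 A549 cells in RPMI 1640 with 10% dialyzed FBS were seeded at 1000 cells/well, grown 24 h, then exposed to compound (0.5% DMSO final) for 72 h at 37 °C, 5% CO2. Viability was read by Cell Titer Fluor fluorescence; EC50 from four-parameter logistic fit.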

[1] = biological target: T1, GLS1 (purified recombinant human GAC) (Homo sapiens, UniProt O94925); assay: GLS1 enzymatic activity assay (dual-coupled, Amplex UltraRed/resorufin); type: biochemical
T1 sequence (O94925 55-598 isoform O94925-3 limits assumed): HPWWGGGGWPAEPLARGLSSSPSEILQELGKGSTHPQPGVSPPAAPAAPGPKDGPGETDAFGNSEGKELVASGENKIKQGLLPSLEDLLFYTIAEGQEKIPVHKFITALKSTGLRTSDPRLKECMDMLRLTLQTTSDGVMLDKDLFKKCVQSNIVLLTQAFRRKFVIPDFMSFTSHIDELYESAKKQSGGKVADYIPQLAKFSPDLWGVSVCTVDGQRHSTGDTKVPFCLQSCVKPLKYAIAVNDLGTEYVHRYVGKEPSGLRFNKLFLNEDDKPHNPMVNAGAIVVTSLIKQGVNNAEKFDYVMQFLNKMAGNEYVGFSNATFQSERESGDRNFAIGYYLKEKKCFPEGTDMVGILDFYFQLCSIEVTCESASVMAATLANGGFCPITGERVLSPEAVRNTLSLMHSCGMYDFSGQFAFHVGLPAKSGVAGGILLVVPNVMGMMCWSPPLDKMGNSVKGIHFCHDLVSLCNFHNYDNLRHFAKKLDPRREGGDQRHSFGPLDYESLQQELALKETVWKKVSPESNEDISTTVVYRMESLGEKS
In short: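 In this coupled fluorometric format, phosphate-activated GAC (2 nM, 50 mM phosphate) is pre-exposed to compound for 10 min before 1 mM glutamine addition. Product is tracked as resorufin (530/590 nm) over time or at 20 min, and potency is derived by logistic fitting.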

Row | SMILES | EC50 (A549 cells) [nM] | IC50 [1] [nM]
1 | O=C(Nc1ccn(CCC(F)Cn2cc(C(=O)NCc3cc(C(F)(F)F)ccn3)nn2)c(=O)n1)OCc1cccc(OC(F)(F)F)c1 (stereo not drawn) [Example 500, [3-(trifluoromethoxy)phenyl]methyl N-(1-{3-fluoro-4-[4-({[4-(trifluoromethyl)pyridin-2-yl]methyl}carbamoyl)-1H-1,2,3-triazol-1-yl]butyl}-2-oxo-1,2-dihydropyrimidin-4-yl)carbamate] | < 100 | < 100
2 | O=C(Nc1ccn(CCC(F)Cn2cc(C(=O)NCc3cc(C(F)(F)F)ccn3)nn2)c(=O)n1)OCc1ccccc1F (stereo not drawn) [Example 501, (2-fluorophenyl)methyl N-(1-{3-fluoro-4-[4-({[4-(trifluoromethyl)pyridin-2-yl]methyl}carbamoyl)-1H-1,2,3-triazol-1-yl]butyl}-2-oxo-1,2-dihydropyrimidin-4-yl)carbamate] | 100 to 500 | < 100
3 | O=C(Cc1ccccc1)Nc1nnc(CCCCn2ccc(NC(=O)CC3CCCC3)c(F)c2=O)s1 [Example 502, 2-cyclopentyl-N-(3-fluoro-2-oxo-1-{4-[5-(2-phenylacetamido)-1,3,4-thiadiazol-2-yl]butyl}-1,2-dihydropyridin-4-yl)acetamide] | 100 to 500 | < 100
4 | O=C(Cc1cccc(OC(F)(F)F)c1)Nc1nnc(CCCCn2ccc(NC(=O)CC3CCCC3)c(F)c2=O)s1 [Example 503, 2-cyclopentyl-N-{3-fluoro-2-oxo-1-[4-(5-{2-[3-(trifluoromethoxy)phenyl]acetamido}-1,3,4-thiadiazol-2-yl)butyl]-1,2-dihydropyridin-4-yl}acetamide] | < 100 | < 100
5 | O=C(Cc1ccccn1)Nc1nnc(CCCCn2ccc(NC(=O)CC3CCCC3)c(F)c2=O)s1 [Example 504, 2-cyclopentyl-N-[3-fluoro-2-oxo-1-(4-{5-[2-(pyridin-2-yl)acetamido]-1,3,4-thiadiazol-2-yl}butyl)-1,2-dihydropyridin-4-yl]acetamide] | 100 to 500 | < 100
6 | CC(=O)Nc1nnc(CCCCn2ccc(NC(=O)CC3CCCC3)c(F)c2=O)s1 [Example 505, 2-cyclopentyl-N-{1-[4-(5-acetamido-1,3,4-thiadiazol-2-yl)butyl]-3-fluoro-2-oxo-1,2-dihydropyridin-4-yl}acetamide] | 500 to 5000 | < 100
